Measurements taken from US9895363B2, “Methods for modulating function of proliferating cell nuclear antigen (PCNA) and treating cancer with PCNA-targeting compounds” (University of Cincinnati, priority 2010, dated 2018).

How the values were obtained:
PC-3 cells = assay: Cell cycle distribution by flow cytometry, PC-3; format: cell-based, Human
Description: The effects of PCNA inhibitors on cell cycle progression were investigated via flow cytometry analysis. Specifically, PC-3 cells were plated into 60 mm plates at 2×10^5 cells/plate and were allowed to attach overnight.
The cells were rinsed with HBSS, detached by trypsinization, suspended in MEM-5% FBS, pelleted by centrifugation, resuspended in PI staining solution (PBS containing 50 μg/mL PI, 100 μg/mL RNase A, and 0.05% Triton X-100), and incubated for 45 min at 37° C. After washing with PBS, the cells were resuspended in PBS for flow cytometry analysis in an Epics-XL-MCL system (Beckman Coulter, Fullerton, Calif.). Thirty thousand cells at each time point were collected to determine their DNA content and to obtain flow cytometric fluorescence histograms (X-axis fluorescence, Y-axis cell number). The three fractions (G0/G1, G2/M and S) were quantified by using the Synchronization Wizard of ModFit LT Flow Cytometry Cell-cycle Analysis Softward (Verity Software House, Topsham, Me.).
Flow cytometry analysis was also performed on cells in which endogenous PCNA was knocked down with transfection of PCNA-specific siRNA. Specifically, PC-3 cells were plated into a 60-mm plate at 2×10^5/plate in antibiotics-free medium and transfected with 200 pmol PCNA specific siRNA or control scrambled siRNA for 24 H using Lifectamine 2000. The cells were then cultured in SFM for 24 H, followed by incubation in fresh SFM or stimulation with medium supplemented with 5% FBS, and sampled at different times for analyses. The PC-3 cells were also subjected to western blot analysis. Specifically, cells were washed and scraped into a lysis buffer (1% Triton X-100, 20 mM Tris-HCl, pH 8.0, 137 mM NaCl, 10% glycerol, 2 mM EDTA, 1 mM PMSF, and a protease inhibitor cocktail) and analyzed by Western blotting analysis as described by Zhang et al. in Tumor-infiltrating Macrophages are Involved in Suppressing Growth and Metastasis of Human Prostate Cancer Cells by INF-beta Gene Therapy in Nude Mice; Clin. Cancer Res. 2002; 8:29:2942-51. Samples were collected at 0 H (48 H after transfection), 24 H, 48 H, and 72 H, respectively.
Fluorescence-activated cell sorting (FACS) analysis was performed on both PC-3 cells and LNCaP cells using PCNA-I1. Specifically, cells were treated with 1 or 10 μM PCNA-I1 and sampled for the flow cytometry analysis at 24 H, 48 H, and 72 H. Expression of DNA damage and apoptosis-related proteins in PC-3 cells and LNCaP cells was also determined. Cisplatin, a well-known drug that induces DNA damage and apoptosis, was included in the experiment. LNCaP cells were treated for 6 H, 12 H, or 18 H with 10 μM PCNA-I1, 10 μM cisplatin, or both.

[1] = system: DU145 prostate cancer cells; assay: Growth inhibition by MTT staining, DU145; format: cell-based; conditions: DU-145, 96 h, Human tumor cells, treated four days
Description: Growth inhibitory effects of PCNA-I1 and PCNA-I2 were assessed in human cancer cell lines, mouse cancer cell lines, immortalized mouse cell lines, and human primary cell lines. Specifically, growth inhibitory effects of PCNA-I1 and PCNA-I2 were assessed using MTT staining in the following cells lines: 1) human cancer cell lines including LNCaP (androgen receptor […]), 22Rv1, DU-145, LAPC-4, and PC-3 (androgen receptor […]) prostate cancer cells; MCF-7 and T47D breast cancer cells; A375 and MDA-MB435 melanoma cells; 2) mouse cancer cell lines including TRAMP-C2RE3 prostate cancer cells, B16 and K1735 melanoma cells, UV2237 fibrosarcoma cells, and CT-26 colon cancer cells; 3) immortalized mouse lung cell lines and mouse endothelial cell lines; and 4) primary human cell lines including umbilical endothelial cells (HUVEC, PromoCell, Heidelberg, Germany), primary bone marrow mesenchymal stem cells (HuMSC, PromoCell), primary human mammary epithelial cells (HuBrEC, Lonza, Walkersville, Md.), primary human prostate epithelial cells (HuPrEC, Lonza), and primary mouse spleen lymphocytes (isolated in this laboratory), and primary mouse bone marrow stromal cells (isolated in this laboratory). […]
IC50 values were derived from growth inhibition curves. […] Inhibition of cell growth was calculated using the formula: growth inhibition (%)=(1−A570 of treated/A570 of control)×100. […]

GFP-PCNA = GFP-PCNA chromatin association, fluorescence microscopy; format: cell-based, Human; conditions: PC-3 transfected with pGFP-PCNA; 4 H, 0.5 μM PCNA-I1 or 2 μM PCNA-I2; FIG. 11
Description: Additionally, PC-3 cells were transfected for 24 H with pGFP-PCNA. The cells were then treated for 4 H with 0.5 μM of PCNA-I1 or 2 μM of PCNA-I2. The intact GFP-PCNA expressing cells were observed under a fluorescent microscope and recorded. After treatment with a buffer with 0.5% NP-40 buffer B, the cells were examined and recorded.

[2] = 1 μM, 5% FBS after serum starvation, FIGS. 4 and 5

Question: Which “Cells in G1 phase” value (PC-3 cells; 1 μM, 5% FBS after serum starvation, 24-72 H, FIGS. 4 and 5) does the source give for Cc1ccsc1C(=O)N/N=C/c1ccc2ccccc2c1O [PCNA-I1] here?
Answer: partially attenuated the serum-stimulated G1 decrease at 24 H but led to significant G1 reductions at 48 H and 72 H

Question: And the “Cells in S phase” value (PC-3 cells; [2])?
Answer: significantly increased at 24 H

Question: And the “G2/M fraction of cells” value (PC-3 cells; [2])?
Answer: increased steadily at 48 H and 72 H

Question: And the “Cell cycle effect, PC-3, 1 μM” value (PC-3 cells; 1 μM, FIG. 15)?
Answer: cell growth arrest at S and G2/M phases

Question: And the “Cell cycle effect, PC-3, 10 μM” value (PC-3 cells; 10 μM, FIG. 15)?
Answer: more significant G1 arrest

Question: What about the “Apoptosis, PC-3” value (PC-3 cells; 1 or 10 μM, 24, 48, 72 H) of the same compound?
Answer: Apoptosis was not observed

Question: And the IC50 [1]?
Answer: 160 nM

Question: What about the “Level of chromatin-associated GFP-PCNA” value (GFP-PCNA) of the same compound?
Answer: reduced the level of chromatin-associated GFP-PCNA

Question: What about the “Total intensity of GFP-PCNA” value (GFP-PCNA) of the same compound?
Answer: did not significantly alter the total intensity of GFP-PCNA
